Reference: patent US11185593B2, “Alkylating agent for alkylating target with driver oncogene mutation” (Chiba Prefecture, priority 2013, dated 2021)

Columns and labels:
MCF7 cells = test: Cytotoxicity test, Cell Counting Kit-8, 72 hours; format: cell-based; settings: Homo sapiens, MCF7, breast cancer, PIK3CA E545K, FIG. 27A
Experimental: (§1) The experiment was carried out in the same manner as that in the case of using KR12. The cells used in the experiment were MCF7 cells and MDA-MB-231 cells. These cells were cultured in a DMEM, 10% FBS and 1% Pen/St medium, and in an RPMI1640, 10% FBS and 1% Pen/St medium, respectively. The cells of each type were seeded in each well of a 96-well plate at a cell density of 1000 cells/50 μl/well, and were then cultured under conditions of 37° C., 5% CO2, and saturated humidity for 24 hours. Thereafter, a reagent was diluted with a medium (final concentration: 1, 3, 10, 30, and 100 nM), and the diluted reagent was then added to the cultured cells in an amount of 50 μl/well, and the obtained mixture was then blended. The thus obtained mixture was cultured again under conditions of 37° C., 5% CO2, and saturated humidity for 72 hours. Thereafter, Cell Counting Kit-8 (DOJINDO) was added to the obtained culture in an amount of 10 μl/well, and the thus obtained mixture was blended and was then cultured under conditions of 37° C., 5% CO2, and saturated humidity for 2 hours. The absorbance was measured using Microplate Reader MTP-310 Lab (COLONA ELECTORIC), and the IC50 value was then calculated.

[1] = Body weight and health condition of treated nude mice; format: in vivo; settings: nude mice with SW480 cells; FIG. 15; seco CBI 8.4 mmol
Experimental: The below-mentioned 3 types of PBS solutions containing each type of cells were subcutaneously transplanted into the femurs of nude mice (i.e., HT29 into 7 mice, LS180 into 7 mice, and SW480 into 6 mice), and thereafter, at a time point in which a tumor adhered to the living body of each mouse and the tumor volume became approximately 100 mm^3, a drug was prepared with a composition of 3.4 mmol KR12 (1.36 mM KR12 dissolved in 2.5 μL of DMSO and 197.5 μL of PBS), or of a DMSO/PBS control (2.5 μL of DMSO and 197.5 μL of PBS). The prepared drug was subjected to sonication for 10 minutes, and 200 μL of the drug was administered to each mouse via the caudal vein thereof. The body weight and the tumor size were measured once three days, and the size of the tumor was measured by the method of 0.52×L×W×D(1/6×π×L×W×D).
Using, as controls, PIP-indole-seco-CBI (KR13) not recognizing a codon 12 mutation and 8.4 mmol seco CBI (3.36 mM CBI dissolved in 2.5 μL of DMSO and 197.5 μL of PBS), instead of the DMSO/PBS control, an experiment was carried out by the same method as that of the above section 11.

LS180 cells = test: Cytotoxicity test, WST-8 (cell counting kit-8), 48 hours; format: cell-based, human; settings: LS180 cells
Experimental: Using LS180 colon cell line, the cells were seeded in each well of a 96-well microplate, resulting in a cell density of 3000 to 5000 cells/well, and they were then cultured overnight. On the following day, KR12 recognizing a codon 12 mutation, WT recognizing wild-type KRAS, and C12-Dp having the same structure as that of KR12, to which an alkylating agent had not been added, were each added to the cultured cells in concentrations of 1 nM, 10 nM, 30 nM, 100 nM, 300 nM, and 1 μM, and were then treated for 48 hours. Thereafter, a WST-8 reagent was added to each well, using cell counting kit-8 (DOJINDO), and the obtained mixture was then reacted for 2 hours. After that, the number of cells was counted at a wavelength of 450 nm according to a colorimetric analysis method using a microplate reader. The method of counting the number of cells comprises: 1) obtaining the mean value of the medium alone, 2) subtracting the mean value of the medium from each well, 3) obtaining the mean value of DMSO, 4) dividing the medium-subtracted value by the mean value of DMSO and then multiplying by 100, 5) obtaining the mean value of each treatment group and a standard deviation, and then preparing a graph. The calculation formula of IC50 is the following: IC50=10 (LOG (A/B)×(50−C)/(D−C)+LOG (B)), wherein A: a higher concentration of two concentrations sandwiching 50%, B: a lower concentration of two concentrations sandwiching 50%, C: inhibitory percentage at B, and D: inhibitory percentage at A.
Using colon cancer and pancreatic cancer cell lines, the cells were seeded in each well of a 96-well microplate, resulting in a cell density of 3000 to 5000 cells/well, and they were then cultured overnight. On the following day, the cells of each type were treated with KR12 recognizing a codon 12 mutation in concentrations of 1 nM, 10 nM, 30 nM, 100 nM, 300 nM, and 1 μM for 48 hours. Thereafter, a WST-8 reagent was added to each well, using cell counting kit-8, and the obtained mixture was then reacted for 2 hours. After that, the number of cells was counted at a wavelength of 450 nm according to a colorimetric analysis method using a microplate reader. The method of counting the number of cells comprises: 1) obtaining the mean value of the medium alone, 2) subtracting the mean value of the medium from each well, 3) obtaining the mean value of DMSO, 4) dividing the medium-subtracted value by the mean value of DMSO and then multiplying by 100, 5) obtaining the mean value of each treatment group and a standard deviation, and then preparing a graph. […]

IMR-32 cells = test: Cytotoxicity test, Cell Counting Kit-8, 72 hours; format: cell-based; settings: Homo sapiens
Experimental: as §1, with “Kelly cells, SK-N-SH cells, IMR-32 cells, SK-N-AS cells,” for “MCF7 cells”
as §1, with “IMR-32” for “MCF7”, “TGW” for “MDA-MB-231”

TGW cells = test: Cytotoxicity test, Cell Counting Kit-8, 72 hours; format: cell-based; settings: TGW cells, 1 to 100 nM, FIG. 33
Experimental: as §1, with “IMR-32” for “MCF7”, “TGW” for “MDA-MB-231”

Kelly cells = test: Cytotoxicity test, Cell Counting Kit-8, 72 hours; format: cell-based; settings: ALK F1174L neuroblastoma
Experimental: as §1, with “Kelly cells, SK-N-SH cells, IMR-32 cells, SK-N-AS cells,” for “MCF7 cells”

SK-N-AS cells = test: Cytotoxicity test, Cell Counting Kit-8, 72 hours; format: cell-based; settings: Homo sapiens, wild-type ALK neuroblastoma
Experimental: as §1, with “Kelly cells, SK-N-SH cells, IMR-32 cells, SK-N-AS cells,” for “MCF7 cells”

SK-N-SH cells = test: Cytotoxicity test, Cell Counting Kit-8, 72 hours; format: cell-based; settings: Homo sapiens, ALK F1174L neuroblastoma
Experimental: as §1, with “Kelly cells, SK-N-SH cells, IMR-32 cells, SK-N-AS cells,” for “MCF7 cells”

MDA-MB-231 cells = test: Cytotoxicity test, Cell Counting Kit-8, 72 hours; format: cell-based; settings: Homo sapiens, MDA-MB-231, breast cancer
Experimental: as §1, with “Kelly cells, SK-N-SH cells, IMR-32 cells, SK-N-AS cells,” for “MCF7 cells”, “Thereafter, Cell Counting Kit-8 (DOJINDO) was added to the obtained culture in an amount of 10 μl/well, and the thus obtained mixture was blended and was then cultured under conditions of 37° C., 5% CO2, and saturated humidity for 2 hours.” left out
The experiment was carried out in the same manner as that in the case of using KR12. […] The absorbance was measured using Microplate Reader MTP-310 Lab (COLONA ELECTORIC), and the IC50 value was then calculated.

CC(=O)Nc1cc(C(=O)Nc2cc(C(=O)Nc3cn(C)c(C(=O)NCCC(=O)Nc4cc(C(=O)Nc5cn(C)c(C(=O)Nc6cn(C)c(C(=O)NCCCC(=O)Nc7cc(C(=O)Nc8cc(C(=O)NCCC(=O)Nc9cn(C)c(C(=O)Nc%10cc(C(=O)Nc%11ccc%12[nH]c(C(=O)N%13CC(CCl)c%14c%13cc(O)c%13ccccc%14%13)cc%12c%11)n(C)c%10)n9)n(C)c8)n(C)c7)n6)n5)n(C)c4)n3)n(C)c2)n(C)c1 (stereo not shown) [P3A-E5K-2]
IC50 (MCF7 cells): > 100 nM

Oc1cc2c(c3ccccc13)C(CCl)CN2 (stereo not shown) [seco-CBI, 1-chloromethyl-5-hydroxy-1,2-dihydro-3H-benzo[e]indole]
tendency of body weight reduction [1]: the tendency of body weight reduction, which was observed

CC(=O)Nc1cn(C)c(C(=O)Nc2cn(C)c(C(=O)NCCC(=O)Nc3cn(C)c(C(=O)Nc4cn(C)c(C(=O)Nc5cc(C(=O)Nc6cn(C)c(C(=O)NCCCC(=O)Nc7cc(C(=O)Nc8cn(C)c(C(=O)NCCC(=O)Nc9cc(C(=O)Nc%10cc(C(=O)Nc%11ccc%12[nH]c(C(=O)N%13CC(CCl)c%14c%13cc(O)c%13ccccc%14%13)cc%12c%11)n(C)c%10)n(C)c9)n8)n(C)c7)n6)n(C)c5)n4)n3)n2)n1 (stereo not shown) [WT]
IC50 (LS180 cells; Homo sapiens, WST-8, FIG. 8, read-out: IC50): 193 nM

CC(=O)Nc1cc(C(=O)Nc2cn(C)c(C(=O)Nc3cc(C(=O)NCCC(=O)Nc4cn(C)c(C(=O)Nc5cc(C(=O)NCCCC(=O)Nc6cc(C(=O)Nc7cc(C(=O)NCCC(=O)Nc8cc(C(=O)Nc9ccc%10[nH]c(C(=O)N%11CC(CCl)c%12c%11cc(O)c%11ccccc%12%11)cc%10c9)n(C)c8)n(C)c7)n(C)c6)n(C)c5)n4)n(C)c3)n2)n(C)c1 (stereo not shown) [MYCNA2]
IC50 (IMR-32 cells; IMR-32 cells, 1 to 100 nM, FIG. 33): 12.1 nM
IC50 (TGW cells): 11.2 nM

CC(=O)Nc1cn(C)c(C(=O)Nc2cc(C(=O)NCCC(=O)Nc3cn(C)c(C(=O)Nc4cn(C)c(C(=O)Nc5cc(C(=O)Nc6cn(C)c(C(=O)NCCCC(=O)Nc7cc(C(=O)Nc8cn(C)c(C(=O)NCCC(=O)Nc9cc(C(=O)Nc%10cc(C(=O)Nc%11ccc%12[nH]c(C(=O)NCCC(=O)N(C)C)cc%12c%11)n(C)c%10)n(C)c9)n8)n(C)c7)n6)n(C)c5)n4)n3)n(C)c2)n1 [C12-Dp]
suppression of the cell growth (LS180 cells; 1 nM to 1 μM, FIG. 8): suppression of the cell growth was not observed

CC(=O)Nc1cc(C(=O)Nc2cc(C(=O)Nc3cc(C(=O)Nc4cc(C(=O)NCCC(=O)Nc5cc(C(=O)Nc6cc(C(=O)Nc7cc(C(=O)NCCCC(=O)Nc8cn(C)c(C(=O)Nc9cn(C)c(C(=O)NCCC(=O)Nc%10cn(C)c(C(=O)Nc%11cn(C)c(C(=O)Nc%12cc(C(=O)Nc%13ccc%14[nH]c(C(=O)N%15CC(CCl)c%16c%15cc(O)c%15ccccc%16%15)cc%14c%13)n(C)c%12)n%11)n%10)n9)n8)n(C)c7)n(C)c6)n(C)c5)n(C)c4)n(C)c3)n(C)c2)n(C)c1 (stereo not shown) [ALK-FL-1]
IC50 (Kelly cells): 0.09 nM
IC50 (SK-N-AS cells): 2.6 nM
IC50 (SK-N-SH cells): 0.13 nM
IC50 (IMR-32 cells; IMR-32, IMR32, wild-type ALK neuroblastoma): 0.46 nM
IC50 (MDA-MB-231 cells; wild-type ALK gene): 7.5 nM

CC(=O)Nc1cc(C(=O)Nc2cc(C(=O)Nc3cn(C)c(C(=O)Nc4cc(C(=O)NCCC(=O)Nc5cn(C)c(C(=O)Nc6cn(C)c(C(=O)NCCCC(=O)Nc7cc(C(=O)Nc8cc(C(=O)NCCC(=O)Nc9cn(C)c(C(=O)Nc%10cc(C(=O)Nc%11ccc%12[nH]c(C(=O)N%13CC(CCl)c%14c%13cc(O)c%13ccccc%14%13)cc%12c%11)n(C)c%10)n9)n(C)c8)n(C)c7)n6)n5)n(C)c4)n3)n(C)c2)n(C)c1 (stereo not shown) [P3A-E5K-1]
IC50 (MDA-MB-231 cells; wild-type PIK3CA gene, FIG. 27B): > 100 nM
IC50 (MCF7 cells): 53.8 nM
